Earlier results, collected in Sander's compilation of Henry's law constants (doi:10.1021/je900477x).
Values joined by “and” are separate entries in the source; they are usually repeats but may differ in a detail not shown here. Equal values may be shown once.

Experiment: Henry solubility constant Hcp at 298.15 K (mol/(m3 Pa))
Conditions: reference: Ma et al. (2010b); cited value

Row | Structure (SMILES) | Henry solubility constant Hcp
1 | c1ccc2c(c1)Cc1ccccc1-2 [2,3-benzindene] | 0.11
2 | c1cc2c3c(cccc3c1)CC2 [acenaphthene] | 0.072 and 0.07
3 | C1=Cc2cccc3cccc1c23 [acenaphthylene] | 0.082 and 0.1
4 | c1ccc2cc3ccccc3cc2c1 [anthracene] | 0.2
5 | c1ccc2c(c1)cc1ccc3cccc4ccc2c1c34 [benzo[a]pyrene] | 20 and 13
6 | c1ccc2c(c1)-c1cccc3c1c-2cc1ccccc13 [benzo[b]fluoranthene] | 15
7 | c1cc2ccc3ccc4ccc5cccc6c(c1)c2c3c4c56 [benzo[ghi]perylene] | 30 and 24
8 | c1ccc2c(c1)-c1cccc3cccc-2c13 [benzo[jk]fluorene] | 0.69 and 0.75
9 | c1ccc2cc3c(cc2c1)-c1cccc2cccc-3c12 [benzo[k]fluoranthene] | 17 and 18
10 | c1ccc2c(c1)ccc1c3ccccc3ccc21 [chrysene] | 2.3 and 2.7
11 | c1ccc2c(c1)-c1ccc3ccc4cccc5cc-2c1c3c45 [indeno[1,2,3-cd]pyrene] | 29 and 20
12 | c1ccc2ccccc2c1 [naphthalene] | 0.021 and 0.022
13 | c1ccc2c(c1)ccc1ccccc12 [phenanthrene] | 0.23
